Test results: patent US20230270804A1, “ANTI-HYPERCHOLESTEROLEMIA COMPOSITION AND A METHOD OF MANUFACTURING THE SAME” (NBI BIOSCIENCES PRIVATE LIMITED, priority 2020, published 2023)
“Also recorded” adds a separate entry of the source.

Legend:
[1] = Prophylactic study (90 days): body weight; assay type: in vivo, Wistar strain albino rats; conditions: for Average Body Weight: HFD+normal diet
Method: (§1) Wistar strain albino rats of body weight ranging from 190-225 g were selected for the present study. The temperature and humidity were kept at optimum (22+2° C.; 40-70% and animals were exposed to natural chronological day night cycles. The experiments were carried out in conformity with the Institutional Animal Ethics Committee.
(§2) The 6 groups were as follows: • 1. Normal Control • 2.

[2] = rat, in vivo
Method: The prophylactic study which lasted 90 days used 6 rats per group. […] The 6 groups were as follows: • 1. Normal Control • 2. High Fat Diet (HFD) 1 ml 1/d+Normal Diet • 3. High Fat Diet (HFD)+Normal Diet+the composition of the present invention (OD) • 4, High Fat Diet (HFD)+Normal Diet+the composition of the present invention (BD) • 5. […] The body weights were recorded to the nearest gram (g) with proper tare to 0.0000 with the subject at steady state on the weighing machine. The same weighing machine was used for all the subjects. The machine was tested with a known set of weights for any error.
(§3) The long-term rise in the electrolyte such as Na and are associated with blood pressure disorders impacting the heart.

[3] = Therapeutic study: organ body weight after necropsy; assay type: in vivo, Wistar strain albino rats
[4] = system: hypercholesterolemia induced wistar rats' models; assay: Therapeutic study: lipid profile (TC, TG, HDL-C, LDL-C, VLDL); assay type: in vivo, Wistar strain albino rats
Method: as §1, §2
(§4) 1.5-2 ml blood sample was taken from retino-orbital chamber in vials for biochemical estimations at every 15 days. Investigations performed included detailed Total Cholesterol—TC (mg/dl), Triglyceride—TG (mg/dl), High Density Lipoprotein—HDL-C (mg/dl), Low Density Lipoprotein—LDL-C (mg/dl), Very Low-Density Lipoprotein—VLDL (mg/dl), WBC (10^3/u1), RBC (10^6/u1), Hb (g/dl), PCV (%), Reticulocyte (%), Platelet count 10^5/mm^3, Clotting time (Sec), Neutrophils, Lymphocyte, Monocyte and Eosinophil. The estimations were done with Ecoline kits from Erba Mannheim, ERBA diagnostics Mannheml, Germany using Semi Autoanalyzer RX50 of MicroLabs Instruments and COUNCELL21 of Tulip Diagnostics Pvt. Ltd. Lipid peroxidation (Plasma & Liver), HMG Co-Reductase, Creatine phosphokinase (CPK), Lactate dehydrogenase (LDH), SGOT and SGPT were estimated at the end of both the studies using the kits.

[5] = system: Creatine phosphokinase (CPK), Lactate dehydrogenase (LDH), SGOT and SGPT; assay: Therapeutic study: CPK, LDH, SGOT, SGPT; assay type: in vivo, Wistar strain albino rats
Method: as §4

[6] = system: heart, spleen, lungs, kidney, liver; assay: Prophylactic study: histopathology (heart, spleen, lungs, kidney, liver); assay type: in vivo, Wistar strain albino rats; conditions: HFD
Excerpt: FIG. 1 depicts the histopathological images of heart.
FIG. 2 depicts the histopathological images of Spleen. […] However, this indicates the safety of the composition of the present invention on spleen.
FIG. 3 depicts the histopathological images of Lungs. […] However, this indicates the safety of the composition of the present invention on lungs.
FIG. 4 depicts the histopathological images of kidney. […] However, this indicates the safety of the composition of the present invention on kidney.
FIG. 5 depicts the histopathological images of liver. […] It also indicates the safety of the composition of the present invention on liver. The composition of the present invention was also found useful to prevent the deposition of the fat bodies.

[7] = Prophylactic study: HbA1c / blood glucose level; assay type: in vivo, Wistar strain albino rats; conditions: HFD fed groups
[8] = system: heart, spleen, lungs, kidney, liver, Aorta; assay: Therapeutic study: histopathology (heart, spleen, lungs, kidney, liver, aorta); assay type: in vivo
Excerpt: FIG. 7 depicts the histopathological images of heart. […] FIG. 8 depicts the histopathological images of spleen. […] FIG. 9 depicts the histopathological images of lungs. […] FIG. 10 depicts the histopathological images of kidney. […] FIG. 11 depicts the histopathological images of liver.
as §3

Structure (SMILES): CC(C)c1c(C(=O)Nc2ccccc2)c(-c2ccccc2)c(-c2ccc(F)cc2)n1CC[C@@H](O)C[C@@H](O)CC(=O)O [Statin, Atorvastatin]
- Average Body Weight ([1]; day 0): 209.83 ± 26.39 gms
- Average Body Weight ([1]; day 15): 213.16 ± 27.47 gms
- Average Body Weight ([1]; day 30): 209.10 ± 20.10 gms
- Average Body Weight ([1]; day 45): 223.83 ± 28.41 gms
- Average Body Weight ([1]; day 60): 222.6 ± 17.46 gms
- Average Body Weight ([1]; day 75): 223.05 ± 8.08 gms
- Average Body Weight ([1]; day 90): 229.72 ± 6.13 gms
- maintenance of body weight ([1]; prophylactic study, after HFD treatment): not able to maintain the body weight
- Sodium and potassium level [2]: enhanced
- Intestine (organ body weight after necropsy) ([3]; HFD Continued): 2.00 ± 0.02
- Kidney (organ body weight after necropsy) ([3]; HFD Continued): 2.82 ± 0.06 g/100 g bd. wt
- Liver (organ body weight after necropsy) ([3]; HFD Continued): 4.51 ± 0.12 g/100 g
- Lungs (organ body weight after necropsy) ([3]; HFD Continued): 0.65 ± 0.03 g/100 g bd. wt
- Pancrease (organ body weight after necropsy) ([3]; HFD Continued): 0.89 ± 0.05 g/100 g bd. wt
- Spleen (organ body weight after necropsy) ([3]; HFD Continued): 1.19 ± 0.02
- Intestine (organ body weight after necropsy) ([3]; HFD Discontinued): 2.00 ± 0.02
- Kidney (organ body weight after necropsy) ([3]; HFD Discontinued): 2.84 ± 0.04 g/100 g bd. wt
- Liver (organ body weight after necropsy) ([3]; HFD Discontinued): 4.37 ± 0.05 g/100 g
- Lungs (organ body weight after necropsy) ([3]; HFD Discontinued): 0.66 ± 0.03 g/100 g bd. wt
- Pancrease (organ body weight after necropsy) ([3]; HFD Discontinued): 0.91 ± 0.03 g/100 g bd. wt
- Spleen (organ body weight after necropsy) ([3]; HFD Discontinued): 1.17 ± 0.03
- HDL-C ([4]; HFD continued, day 0): 40.33 ± 2.08 mg/dL
- LDL-C ([4]; HFD continued, day 0): 91.67 ± 3.06 mg/dL
- TC ([4]; HFD continued, day 0): 139.67 ± 4.04 mg/dL
- TG ([4]; HFD continued, day 0): 38.67 ± 2.08 mg/dL
- VLDL ([4]; HFD continued, day 0): 3.87 ± 0.31 mg/dL
- HDL-C ([4]; HFD continued, day 15): 40.83 ± 1.15 mg/dL
- LDL-C ([4]; HFD continued, day 15): 92.83 ± 3.82 mg/dL
- TC ([4]; HFD continued, day 15): 138.00 ± 4.00 mg/dL
- TG ([4]; HFD continued, day 15): 38.00 ± 1.80 mg/dL
- HDL-C ([4]; HFD continued, day 30): 42.45 ± 0.44 mg/dL
- LDL-C ([4]; HFD continued, day 30): 91.33 ± 0.21 mg/dL
- TC ([4]; HFD continued, day 30): 134.00 ± 3.00 mg/dL
- TG ([4]; HFD continued, day 30): 37.30 ± 0.44 mg/dL
- VLDL ([4]; HFD continued, day 30): 3.91 ± 0.05 mg/dL
- HDL-C ([4]; HFD continued, day 45): 40.20 ± 2.07 mg/dL
- LDL-C ([4]; HFD continued, day 45): 90.37 ± 0.85 mg/dL
- TC ([4]; HFD continued, day 45): 126.33 ± 4.51 mg/dL
- TG ([4]; HFD continued, day 45): 34.73 ± 1.37 mg/dL
- VLDL ([4]; HFD continued, day 45): 3.86 ± 0.11 mg/dL
- HDL-C ([4]; HFD continued, day 60): 39.82 ± 1.88 mg/dL
- LDL-C ([4]; HFD continued, day 60): 89.52 ± 1.20 mg/dL
- TC ([4]; HFD continued, day 60): 125.15 ± 4.20 mg/dL
- TG ([4]; HFD continued, day 60): 34.41 ± 1.26 mg/dL
- VLDL ([4]; HFD continued, day 60): 3.82 ± 0.10 mg/dL
- HDL-C ([4]; HFD discontinued, day 0): 41.67 ± 1.53 mg/dL
- LDL-C ([4]; HFD discontinued, day 0): 90.67 ± 3.21 mg/dL
- TC ([4]; HFD discontinued, day 0): 134.33 ± 4.04 mg/dL
- TG ([4]; HFD discontinued, day 0): 38.33 ± 2.52 mg/dL
- VLDL ([4]; HFD discontinued, day 0): 3.83 ± 0.38 mg/dL
- HDL-C ([4]; HFD discontinued, day 15): 40.17 ± 0.58 mg/dL
- LDL-C ([4]; HFD discontinued, day 15): 90.60 ± 3.55 mg/dL
- TC ([4]; HFD discontinued, day 15): 133.00 ± 4.58 mg/dL
- TG ([4]; HFD discontinued, day 15): 37.50 ± 2.00 mg/dL
- VLDL ([4]; HFD discontinued, day 15): 3.91 ± 0.34 mg/dL
- HDL-C ([4]; HFD discontinued, day 30): 41.23 ± 0.38 mg/dL
- LDL-C ([4]; HFD discontinued, day 30): 85.03 ± 0.21 mg/dL
- TC ([4]; HFD discontinued, day 30): 129.33 ± 2.08 mg/dL
- TG ([4]; HFD discontinued, day 30): 35.97 ± 0.74 mg/dL
- VLDL ([4]; HFD discontinued, day 30): 3.88 ± 0.04 mg/dL
- HDL-C ([4]; HFD discontinued, day 45): 39.70 ± 0.46 mg/dL
- TC ([4]; HFD discontinued, day 45): 117.67 ± 6.66 mg/dL
- TG ([4]; HFD discontinued, day 45): 34.53 ± 0.83 mg/dL
- VLDL ([4]; HFD discontinued, day 45): 3.69 ± 0.05 mg/dL
- HDL-C ([4]; HFD discontinued, day 60): 38.94 ± 0.82 mg/dL
- LDL-C ([4]; HFD discontinued, day 60): 83.69 ± 1.18 mg/dL
- TC ([4]; HFD discontinued, day 60): 116.49 ± 6.04 mg/dL
- TG ([4]; HFD discontinued, day 60): 34.19 ± 0.83 mg/dL
- level of HDL ([4]; therapeutic study, 60 days): 39 mg/dL
- reduction in LDL ([4]; therapeutic study, 60 days): 8%
- reduction in total cholesterol ([4]; therapeutic study, 60 days): 13%
- Creatine phosphokinase ([5]; HFD Continued): 1.31 ± 0.08
- LDH ([5]; HFD Continued): 288.32 ± 12.64 U/ml
- SGOT ([5]; HFD Continued): 63.76 ± 2.92 U/ml
- SGPT ([5]; HFD Continued): 53.82 ± 1.13 U/ml
- LDH ([5]; HFD Discontinued): 284.07 ± 5.61 U/ml
- SGOT ([5]; HFD Discontinued): 62.88 ± 3.43 U/ml
- SGPT ([5]; HFD Discontinued): 64.69 ± 0.52 U/ml
- CPK value increase ([5]; therapeutic study): 10%
- SGOT reduction ([5]; therapeutic study): 16%
- SGPT reduction ([5]; therapeutic study): 5%
- histopathology of heart [6]: relaxation in the cardiac muscles as the fat content was decreased
- histopathology of liver (fatty liver grade) ([6]; composition at OD and BD dose levels): dilation of hepatic portal triad was more evident; also recorded: from grade 2 to grade 1
- Blood glucose level [7]: able to maintain Blood glucose level similar to normal diet group
- histopathology of heart ([8]; HFD): cardiac muscle were found stressed
- aorta plaque reduction ([8]; HFD continued): mild
- aorta plaque reduction ([8]; HFD discontinued): moderate reduction in the plaque
- damage to the endothelial lining ([8]; aorta histopathology): mild damage to the endothelial lining
